Data set [1] relates to HCV genotype 1a replicon cells Htat2ANeo. Description: 1a Replicon Assay (cell-based anti-NS5a ELISA). The settings on record: Hepatitis C virus, 72 h. The protocol: HCV genotype la replicon cells Htat2ANeo (University of Texas), containing neomycin phosphotransferase fusion protein and EMCV-IRES driven HCV polyprotein with cell culture adaptive mutations, and control cells, Et2AN.
Cells were cultured at 37° C./5% CO2 and split twice a week. G418 at 0.5 mg/ml and Blastocidin at 2 mg/ml were added to the culture medium but not the assay medium.
The culture medium consisted of DMEM with […] glucose and Glutamax (Gibco 61965-026) supplemented with 1× non-essential amino acids (Invitrogen 11140-035), 0.5 mg/ml G418 (Invitrogen 10131-027), 2 mg/ml Blastocidin (PAA) and 10% is Australian foetal calf serum (Invitrogen 10099-141).
Replicon and control cells were trypsinised and counted. Replicon cells were diluted to 90,000 cells/ml and 100 μl of this used to seed columns 2-4, […] and 10-12 of a black, clear bottom 96-well plate for every three compounds to be tested for IC50. Control cells were diluted to 60,000 cells/ml and 100 μl of this used to seed columns 1, 5 and 9 of the plate. Well H1 was left empty as the blank. Plates were then incubated at 37° C./5% CO2 for 24 h.
On the following day compound dilutions were prepared in medium at twice their desired final concentration in a clear round bottomed plate.
Controls and compounds were transferred from the dilution plate to the assay plates (containing the cells) at 100 μl/well in quadruplicate wells, one well containing control cells and 3 wells containing replicon cells.
Exception: no compound was added to row H of the plate and 100 μl of 1% DMSO was added to these instead. Plates were then incubated at 37° C. with 5% CO2 for 72 h. At the end of the incubation time, any reduction in cell viability was assayed and a cell-based enzyme linked immunosorbent assay (ELISA) was performed. The media/compound was removed from all wells and replaced with 100 μl/well serum-free media and 20 μl/well Cell Titre Blue (Promega G8081). Following incubation at 37° C./5% CO2 for 2 h plates were read on a microplate fluorometer (Molecular Devices) using an excitation of 570 nm and an emission of 590 nm The TD50, the concentration of drug required to reduce 50% of Cell Titre Blue relative to the DMSO controls, was calculated by plotting the fluorescence at 590 nm after substraction of background against drug concentration.
The media/Cell Titre Blue was removed and plates washed in PBS and gently tapped dry before addition of 50 μL per well of 75% acetone/25% methanol mixture for 3 minutes. The fixative was then discarded and wells were washed with PBS before addition of 100 μl/well of blocking solution (2% non-fat dry milk and 0.05% Tween-20 in 0.85% NaCl). Plates were then incubated at 37° C. in a shaking incubator for 60 min. Blocking solution was discarded and 50 μl of mouse anti-NS5a antibody (Virostat 1877) at 1:100 dilution in blocking buffer was added to all wells. Plates were incubated at 37° C. in a shaking incubator for 90 min Antibody was then discarded and plates were washed 4 times by immersion in 0.85% NaCl/0.05% Tween-20. After washing plates were tapped dry gently and 50 μl of secondary antibody (Dako P0260 Rabbit anti-mouse horseradish peroxidase) at 1:1000 dilution in blocking buffer was added to the wells. Plates were incubated at 37° C. in a shaking incubator for 60 min. Antibody was discarded and plates were washed 6 times by immersion in 0.85% NaCl/0.05% Tween-20 and once in PBS. Finally, 50 μl of substrate (SigmaFast ortho-phenylene diamine dihydrochloride (OPD)) was added per well and the colorimetric reaction was allowed to proceed in the dark for 5 to 15 minutes depending on the strength or the signal. The reaction was stopped by addition of 25 μl/well of 20% sulphuric acid. Plates were read on the SpectraMax microplate reader at 490 nm fixed wavelength. […]
For orientation: A replicon is a self-replicating genome or part of one, used to study replication in cells.

The subject of data set [2] is HCV replicon cells Huh 9B (genotype 1b). The experiment in a line: 1b Replicon Assay (luciferase readout). It is filed as cell-based. The settings on record: Hepatitis C virus, Huh 9B replicon cells, 72 h, luciferase activity.
Data set [3] has as its system HCV replicon cells Huh 9B. It counts as cell-based. The settings on record: Huh 9B replicon cells, 72 h, methylene blue, total cell area reduced by 50%. The protocol: HCV replicon cells Huh 9B (ReBlikon), containing the firefly luciferase-ubiquitin-neomycin phosphotransferase fusion protein and EMCV-IRES driven HCV polyprotein with cell culture adaptive mutations.
Replicon cells were trypsinised and counted. Cells were diluted to 100,000 cells/ml and 100 μl used to seed one opaque white 96-well plate (for the replicon assay) and one flat-bottomed clear plate (for the tox assay) for every five compounds to be tested for IC50. Wells G12 and H12 were left empty in the clear plate as the blank. Plates were then incubated at 37° C./5% CO2 for 24 h.
On the following day compound dilutions were prepared in medium at twice their desired final concentration in a clear round bottomed plate. All dilutions have a final DMSO concentration of 1%.
Controls and compounds were transferred from the dilution plates to the assay plates (containing the cells) at 100 μl/well in duplicate wells.
Exception: no compound was added to wells A1 and A2 of either plate and 100 μl of 1% DMSO was added to these instead. Plates were then incubated at 37° C./5% CO2 for 72 h.
The clear plate was stained with 100 μA 0.5% methylene blue in 50% ethanol at room temperature for 1 h, followed by solvation of the absorbed methylene blue in 100 μl per well of 1% lauroylsarcosine. Absorbance of the plate was measured on a microplate spectrophotometer (Molecular Devices) and the absorbance for each concentration of compound expressed as a proportion of the relative DMSO control. The TD50, the is concentration of drug required to reduce the total cell area by 50% relative to the DMSO controls, was calculated by plotting the absorbance at 620 nm after background substraction against drug concentration.

[4] abbreviates: read-out: pIC50 1a Replicon (converted).
Where [5] appears, read: read-out: pIC50 1b Replicon (converted).

The structures appear in SMILES notation. Where two headings read alike, the source gives them in different places. Bounds are passed on as bounds.

Turning to `CC(C)(C)OC(=O)N[C@H](C(=O)N1CCC[C@H]1c1ncc(-c2ccc(-c3ccc(C(=O)Nc4ccc(CN5CCS(=O)(=O)CC5)cc4)cc3)cc2)[nH]1)c1ccccc1` [Example 1, Tert-butyl N-[(1S)-2-[(2S)-2-[5-[4-[4-[[4-[(1,1-dioxo-1,4-thiazinan-4-yl)methyl]phenyl]carbamoyl]phenyl]phenyl]-1H-imidazol-2-yl]pyrrolidin-1-yl]-2-oxo-1-phenyl-ethyl]carbamate], the IC50 in data set [1] (read-out: HCV IC50 Elisa 1a) is 41.4 nM; in data set [1] (setting [4]), 41.7 nM; in data set [2] (read-out: HCV IC50 1b Replicon), 0.01 nM; in data set [2] (setting [5]), 0.0138 nM. Besides, the “HCV TD50 Replicon” value in data set [3] is above 25 µM.

Turning to `COC(=O)N[C@@H](C)C(=O)N1CCC[C@H]1c1ncc(-c2ccc(-c3ccc(C(=O)Nc4ccc(CN5CCS(=O)(=O)CC5)cc4)cc3)cc2)[nH]1` [Example 4, Methyl N-[(1S)-2-[(2S)-2-[5-[4-[4-[[4-[(1,1-dioxo-1,4-thiazinan-4-yl)methyl]phenyl]carbamoyl]phenyl]phenyl]-1H-imidazol-2-yl]pyrrolidin-1-yl]-1-methyl-2-oxoethyl]carbamate], the IC50 in data set [1] (read-out: HCV IC50 Elisa 1a) is 25.9 nM; in data set [1] (setting [4]), 25.7 nM; in data set [2] (read-out: HCV IC50 1b Replicon), 1.18 nM; in data set [2] (setting [5]) it was 1.17 nM. For the same compound, in data set [3], the “HCV TD50 Replicon” value amounted to 22.44 µM.

`COC(=O)N[C@@H](CO)C(=O)N1CCC[C@H]1c1ncc(-c2ccc(-c3ccc(C(=O)Nc4ccc(CN5CCS(=O)(=O)CC5)cc4)cc3)cc2)[nH]1` [Example 11, Methyl N-[(1S)-2-[(2S)-2-[5-[4-[4-[[4-[(1,1-dioxo-1,4-thiazinan-4-yl)methyl]phenyl]carbamoyl]phenyl]phenyl]-1H-imidazol-2-yl]pyrrolidin-1-yl]-1-(hydroxymethyl)-2-oxo-ethyl]carbamate]: the IC50 in data set [1] (read-out: HCV IC50 Elisa 1a) is 19 nM; in data set [1] (setting [4]), 19.1 nM; in data set [2] (read-out: HCV IC50 1b Replicon), 1.13 nM; in data set [2] (setting [5]), 1.12 nM. The “HCV TD50 Replicon” value in data set [3] is above 21 µM.

Turning to `COC(=O)N[C@@H](C(=O)N1CCC[C@@H]1c1ncc(-c2ccc(-c3ccc(C(=O)Nc4ccc(CN5CCS(=O)(=O)CC5)cc4)cc3)cc2)[nH]1)C(C)C` [Example 27, methyl N-[(1R)-1-[(2R)-2-[5-[4-[4-[[4-[(1,1-dioxo-1,4-thiazinan-4-yl)methyl]phenyl]carbamoyl]phenyl]phenyl]-1H-imidazol-2-yl]pyrrolidine-1-carbonyl]-2-methyl-propyl]carbamate], the IC50 is 15.3 nM in data set [2] (read-out: HCV IC50 1b Replicon) and 15.1 nM in data set [2] (setting [5]). The “HCV TD50 Replicon” value in data set [3] was above 25 µM.

In the case of `COC(=O)N[C@H](C(=O)N1CCC[C@H]1c1ncc(-c2ccc(-c3cccc(C(=O)Nc4ccc(CN5CCS(=O)(=O)CC5)cc4)c3)cc2)[nH]1)C(C)C` [Example 28, Methyl N-[(1S)-1-[(2S)-2-[5-[4-[3-[[4-[(1,1-dioxo-1,4-thiazinan-4-yl)methyl]phenyl]carbamoyl]phenyl]phenyl]-1H-imidazol-2-yl]pyrrolidine-1-carbonyl]-2-methyl-propyl]carbamate], the IC50 is 2080 nM in data set [1] (read-out: HCV IC50 Elisa 1a), 2090 nM in data set [1] (setting [4]), 7.32 nM in data set [2] (read-out: HCV IC50 1b Replicon) and 7.24 nM in data set [2] (setting [5]). For the same compound, the “HCV TD50 Replicon” value in data set [3] is above 25 µM.

`COC(=O)N[C@@H](C)C(=O)N1CCC[C@H]1c1ncc(-c2ccc(-c3cccc(C(=O)Nc4ccc(CN5CCS(=O)(=O)CC5)cc4)c3)cc2)[nH]1` [Example 29, Methyl N-[(1S)-2-[(2S)-2-[5-[4-[3-[[4-[(1,1-dioxo-1,4-thiazinan-4-yl)methyl]phenyl]carbamoyl]phenyl]phenyl]-1H-imidazol-2-yl]pyrrolidin-1-yl]-1-methyl-2-oxo-ethyl]carbamate]: the IC50 in data set [1] (read-out: HCV IC50 Elisa 1a) is 7620 nM; in data set [1] (setting [4]), 7590 nM; in data set [2] (read-out: HCV IC50 1b Replicon), 33.4 nM; in data set [2] (setting [5]), 33.1 nM. Also, the “HCV TD50 Replicon” value in data set [3] was above 25 µM.

On to `COC(=O)N[C@H](C(=O)N1CCC[C@H]1c1ncc(-c2ccc(-c3cccc(C(=O)Nc4ccc(CN5CCS(=O)(=O)CC5)cc4)c3)cc2)[nH]1)c1ccccc1` [Example 30, Methyl N-[(1S)-2-[(2S)-2-[5-[4-[3-[[4-[(1,1-dioxo-1,4-thiazinan-4-yl)methyl]phenyl]carbamoyl]phenyl]phenyl]-1H-imidazol-2-yl]pyrrolidin-1-yl]-2-oxo-1-phenyl-ethyl]carbamate], for which the IC50 in data set [1] (read-out: HCV IC50 Elisa 1a) was 2480 nM; in data set [1] (setting [4]), 2450 nM; in data set [2] (read-out: HCV IC50 1b Replicon), 1.2 nM; in data set [2] (setting [5]) it was 1.2 nM. In addition, in data set [3], the “HCV TD50 Replicon” value was above 25 µM.

On to `COC(=O)N[C@@H](C(=O)N1CCC[C@H]1c1ncc(-c2ccc(-c3cccc(C(=O)Nc4ccc(CN5CCS(=O)(=O)CC5)cc4)c3)cc2)[nH]1)c1ccccc1` [Example 31, Methyl N-[(1R)-2-[(2S)-2-[5-[4-[3-[[4-[(1,1-dioxo-1,4-thiazinan-4-yl)methyl]phenyl]carbamoyl]phenyl]phenyl]-1H-imidazol-2-yl]pyrrolidin-1-yl]-2-oxo-1-phenyl-ethyl]carbamate], for which the IC50 is 2700 nM in data set [1] (read-out: HCV IC50 Elisa 1a), 2690 nM in data set [1] (setting [4]), 0.91 nM in data set [2] (read-out: HCV IC50 1b Replicon) and 0.912 nM in data set [2] (setting [5]). Moreover, the “HCV TD50 Replicon” value in data set [3] was above 25 µM.

On to `CCN(CC)[C@@H](C(=O)N1CCC[C@H]1c1ncc(-c2ccc(-c3cccc(C(=O)Nc4ccc(CN5CCS(=O)(=O)CC5)cc4)c3)cc2)[nH]1)c1ccccc1` [Example 32, 3-[4-[2-[(2S)-1-[(2R)-2-(diethylamino)-2-phenyl-acetyl]pyrrolidin-2-yl]-1H-imidazol-5-yl]phenyl]-N-[4-[(1,1-dioxo-1,4-thiazinan-4-yl)methyl]phenyl]benzamide], for which the IC50 in data set [1] (read-out: HCV IC50 Elisa 1a) is 1150 nM; in data set [1] (setting [4]), 1150 nM; in data set [2] (read-out: HCV IC50 1b Replicon) it was 0.21 nM; in data set [2] (setting [5]) it was 0.209 nM. The “HCV TD50 Replicon” value in data set [3] is above 25 µM.

These data come from patent publication US20100215618A1, “NOVEL COMPOUNDS - 644” (Arrow Therapeutics Limited, priority 2009, published 2010).
